What follows are compounds tested against Melatonin receptor (Gallus gallus, UniProt P49288+P51050+P49285) (assay: Binding affinity against chicken brain melatonin receptors using 2-[125I]iodomelatonin as radioligand).

| Log Ki | SMILES |
| --- | --- |
| -6.67 | COc1cc2ccccc2c2c1CC(NC(C)=O)CC2 (stereo not drawn) |
| -8.6 | COc1cc2c(CCNC(=O)C3CC3)c[nH]c2cc1F |
| -7.52 | CC(=O)NCCc1cccc2ccc(O)cc12 |
| -8.03 | COc1ccc2cccc(CCNC=O)c2c1 |
| -9.85 | CCCC(=O)NCCc1c[nH]c2cc(F)c(OC)cc12 |
| -8.97 | CCOc1ccc2ccccc2c1CCNC(=O)CC |
| -6.54 | COc1ccc(-c2ccccc2)cc1CCNC(C)=O |
| -8.45 | CCOc1ccc2ccccc2c1CCNC(C)=O |
| -7.46 | COc1ccc2cccc3c2c1CC(NC(C)=O)C3 (stereo not drawn) |
| -8.17 | CCCNC(=O)NCCc1c[nH]c2ccc(OC)cc12 |
| -8.77 | COc1ccc2cccc(CONC(C)=O)c2c1 |
| -6.94 | COc1ccc(OC)c(CCNC(=O)C(F)(F)F)c1 |
| -7.25 | COc1ccc2ccccc2c1CONC(C)=O |
| -7.19 | CCC(=O)NCCc1c(OC)ccc2cc(C)ccc12 |
| -6.64 | COc1ccc(C)cc1CCNC(=O)C(F)(F)F |
| -5.72 | COc1cccc(CCNC(=O)C(F)(F)F)c1 |

| Log Ki | SMILES |
| --- | --- |
| -10.53 | CCCC(=O)NCCc1cccc2ccc(OC)cc12 |
| -10.14 | CCC(=O)NCCc1c(OC)ccc2ccc(OC)cc12 |
| -6.71 | COc1ccc(C)cc1CCNC(C)=O |
| -8.94 | CCC(=O)NCCc1cc(Br)ccc1OC |
| -9.92 | COc1ccc2cccc(CCNC(=O)CBr)c2c1 |
| -7.35 | CCCCC(=O)NCCc1cccc2ccc(OC)cc12 |
| -7.92 | CCC(=O)NCCc1cc(OC)cc2ccc(OC)cc12 |
| -6.62 | CCCCC(=O)NCCc1cccc2ccccc12 |
| -8.6 | COc1ccc2[nH]cc(CCNC(=O)C3CC3)c2c1 |
| -9.74 | CCC(=O)NCCc1cccc2ccc(OC)cc12 |
| -7.71 | COc1ccc2cccc(CCNC(=O)C3CC3)c2c1 |
| -8.23 | CCOc1ccc2ccccc2c1CCNC(=O)C(F)(F)F |
| -9.62 | COc1ccc2ccc(OC)c(CCNC(C)=O)c2c1 |
| -9.41 | COc1ccc2ccc(OC)c(CCNC(=O)C(F)(F)F)c2c1 |
| -9.26 | COc1ccc2ccccc2c1CCNC(=O)C(F)(F)F |
| -7.15 | COc1ccc(OC)c(CCNC(C)=O)c1 |

| SMILES | Log Ki |
| --- | --- |
| CC(=O)NCCc1c[nH]c2ccccc12 | -6.31 |

From ChEMBL document CHEMBL1130377 (J Med Chem, 1997)
